Source: patent US20070219146A1, “Synergistic Pharmaceutical And/Or Neutraceutical Flavanoid Composition For Management Of Diabetes Mellitus” (priority 2006, published 2007)

What was measured:
Alloxan diabetic mice [1] = assay: Acute study of Cocoa Flavanoid, blood sugar level in Alloxan diabetic mice; type: in vivo, Swiss Albino mice (male); settings: Glyburide 10 mg/kg; for Summary in percentage (Blood sugar level): reduction versus Normal
Protocol: Swiss Albino mice (male) in the weight range 25 to 30 grams were studied for acute affect. They were made diabetic by the admnistration of Alloxan (with admnistration of 70 mg/kg Alloxan and in 48 hours the animals develop diabetes). As the mice became diabetic and the blood sugar was above […], they were grouped into […] of six each. Each group was administered by the test drug at 25 mg/kg, 50 mg/kg 100 mg/kg and 250 mg/kg body weight. One group was administered a positive control drug glyburide at 10 mg/kg of body weight. Blood samples were drawn at 2 hour, 4 hour, 6 hour and 24 hour intervals for all mice. The blood sugar pattern is studied. It has been found out that the best results are obtained for a dose of 50 mg/kg body weight at 2 hours after administration and it increases up to the 6th hour. Good result is obtained for 100 mg/kg drug. […] The effect of 50 mg/kg compared very well with the effect of positive control drug glyburide at 10 mg/kg body weight.
This is an interesting finding that the hypoglycemic effect is best for a dose ranging between 50 mg to 100 mg/kg of body weight.

Alloxan diabetic mice [2] = assay: Sub acute study (28 days) of Cocoa Flavanoid, blood sugar level in Alloxan diabetic mice; type: in vivo, Swiss Albino mice (Male); settings: Glyburide 10 mg/kg; for Summary in percentage (Blood sugar level): reduction versus Normal
Protocol: Swiss Albino mice (Male) in the weight range of 25 to 30 gram were studied for sub acute effect for 28 days. The mice were made diabetic by admnistration of Alloxan. As the mice became diabetic and the blood sugar was above […] they were chosen for the study. 4 groups were made. One group was given 50 mg/kg, 2nd group 100 mg/kg, 3rd group 250 mg/kg and the 4th group positive control glyburide at 10 mg/kg. Treatment was given for 28 days.
A very interesting observation was made that the best effect was produced by the dose of 100 mg/kg body weight. The effect started by 7th day and increased up to 28th day. […] Unlike acute study, the sub acute study has confirmed that 100 mg/kg given the most optimal blood sugar reduction. This effect was sustained after the removal of treatment on 35th day.

With `COc1ccc(Cl)cc1C(=O)NCCc1ccc(S(=O)(=O)NC(=O)NC2CCCCC2)cc1` [Glyburide] as the molecule, how does the “Blood sugar level (reading)” value (Alloxan diabetic mice [1]; 2 hour) read?
Its value is 317.50.

And the “Summary in percentage (Blood sugar level)” value (shortened to “Summary in percentage”) (Alloxan diabetic mice [1]; 2 hour)?
The value was 15%.

What about the “Blood sugar level (reading)” value (Alloxan diabetic mice [1]; 4 hour) of the same molecule?
The value was 266.16.

And the “Summary in percentage” value (Alloxan diabetic mice [1]; 4 hour)?
The value was 29%.

And the “Blood sugar level (reading)” value (Alloxan diabetic mice [1]; 6 hour)?
Its value is 149.50.

What about the “Summary in percentage” value (Alloxan diabetic mice [1]; 6 hour) of the same molecule?
Its value is 60%.

What about the “Blood sugar level (reading)” value (Alloxan diabetic mice [1]; 24 hour) of the same molecule?
Its value is 228.66.

What about the “Summary in percentage” value (Alloxan diabetic mice [1]; 24 hour) of the same molecule?
Its value is 39%.

And the “Blood sugar level (reading)” value (Alloxan diabetic mice [1]; Normal (before administration))?
Its value is 374.33.

What about the “Blood sugar level (reading)” value (Alloxan diabetic mice [2]; Normal (before treatment)) of the same molecule?
Its value is 396.09.

What about the “Blood sugar level (reading)” value (Alloxan diabetic mice [2]; day 7) of the same molecule?
The value was 323.46.

What about the “Summary in percentage” value (Alloxan diabetic mice [2]; day 7) of the same molecule?
The value was 18%.

And the “Blood sugar level (reading)” value (Alloxan diabetic mice [2]; day 14)?
Its value is 265.46.

And the “Summary in percentage” value (Alloxan diabetic mice [2]; day 14)?
Its value is 33%.

What about the “Blood sugar level (reading)” value (Alloxan diabetic mice [2]; day 21) of the same molecule?
The value was 170.82.

What about the “Summary in percentage” value (Alloxan diabetic mice [2]; day 21) of the same molecule?
The value was 57%.

What about the “Blood sugar level (reading)” value (Alloxan diabetic mice [2]; day 28) of the same molecule?
Its value is 137.90.

What about the “Summary in percentage” value (Alloxan diabetic mice [2]; day 28) of the same molecule?
The value was 65%.
